Consider 53 compounds from patent US8309558B2, “Compounds for the treatment of hepatitis C” (Bristol-Myers Squibb Company, priority 2008, dated 2012).

The subject of the test is HCV replicon cells. Put plainly: HCV replicon FRET / luciferase assay (96-well plates). It counts as cell-based. To be noted: Hepatitis C virus, 24 h, Table 1d (class symbols); HCV replicon; read-out: EC50. The text has this: FRET Assay Preparation. To perform the HCV FRET screening assay, 96-well cell culture plates were used. The FRET peptide (Anaspec, Inc.) (Taliani et al., Anal. Biochem. 1996, 240, 60-67) contains a fluorescence donor, EDANS, near one end of the peptide and an acceptor, DABCYL, near the other end. The fluorescence of the peptide is quenched by […] resonance energy transfer (RET) between the donor and the acceptor, but as the NS3 protease cleaves the peptide the products are released from RET quenching and the fluorescence of the donor becomes apparent. The assay reagent was made as follows: 5× cell Luciferase cell culture lysis reagent from Promega (#E153A) diluted to 1× with dH2O, NaCl added to 150 mM final, the FRET peptide diluted to 20 μM final from a 2 mM stock.
To prepare plates, HCV replicon cells, with or without a Renilla luciferase reporter gene, were trypsinized and placed into each well of a 96-well plate with titrated test compounds added in columns 3 through 12; columns 1 and 2 contained a control compound (HCV protease inhibitor), and the bottom row contained cells without compound. The plates were then placed in a CO2 incubator at 37° C.
Assays. Subsequent to addition of the test compounds described above (FRET Assay Preparation), at various times the plate was removed and Alamar blue solution (Trek Diagnostics, #00-100) was added per well as a measure of cellular toxicity. After reading in a Cytoflour 4000 instrument (PE Biosystems), plates were rinsed with PBS and then used for FRET assay by the addition of 30 ul of the FRET peptide assay reagent described above (FRET Assay Preparation) per well. The plate was then placed into the Cytoflour 4000 instrument which had been set to 340 excite/490 emission, automatic mode for 20 cycles and the plate read in a kinetic mode. Typically, the signal to noise using an endpoint analysis after the reads was at least three-fold. Alternatively, after Alamar blue reading, plates were rinsed with PBS, 50 ul of DMEM (high glucose) without phenol red was added and plates were then used for luciferase assay using the Promega Dual-Glo Luciferase Assay System.
Compound analysis was determined by quantification of the relative HCV replicon inhibition and the relative cytotoxicity values. To calculate cytoxicity values, the average Alamar Blue fluorescence signals from the control wells were set as 100% non-toxic. The individual signals in each of the compound test wells were then divided by the average control signal and multiplied by 100% to determine […]. To calculate the HCV replicon inhibition values, an average background value was obtained from the two wells containing the highest amount of HCV protease inhibitor at the end of the assay period. These numbers were similar to those obtained from naïve Huh-7 cells.
The background numbers were then subtracted from the average signal obtained from the control wells and this number was used as 100% activity. The individual signals in each of the compound test wells were then divided by the averaged control values after background subtraction and multiplied by 100% to determine percent activity. EC50 values for a protease inhibitor titration were calculated as the concentration which caused a 50% reduction in FRET or luciferase activity. The two numbers generated for the compound plate, percent cytoxicity and percent activity were used to determine compounds of interest for further analysis.
In the case of `CNC(=O)c1c(-c2ccc(F)cc2)oc2ccc(-c3cc(C(=O)NC4(c5ccccn5)CC4)c(OCC#N)cc3C)cc12`, the EC50 (as a rule, the concentration that produces a half-maximal response) was in the range of 1 to 250 nM. Take `CNC(=O)c1c(-c2ccc(F)cc2)oc2ccc(-c3cc(C(=O)NC4(c5cncnc5)CC4)c(OC)cc3C)cc12`: the EC50 was in the range of 1 to 250 nM. As for `CCCCOc1cc(C)c(-c2ccc3oc(-c4ccc(F)cc4)c(C(=O)NC)c3c2)cc1C(=O)NC1(c2ccccn2)CC1`, the figure is 1 to 250 nM. For the compound `CNC(=O)c1c(-c2ccc(F)cc2)oc2ccc(-c3cc(C(=O)NC4(c5ccccn5)CC4)c(OCCC(C)C)cc3C)cc12`, the 50% effective concentration (EC50) was 1 to 250 nM. The same measure for `CNC(=O)c1c(-c2ccc(F)cc2)oc2ccc(-c3cc(C(=O)NC4(c5ccccn5)CC4)c(OCCN(C)C)cc3C)cc12`: 1 to 250 nM; for `CNC(=O)c1c(-c2ccc(F)cc2)oc2ccc(-c3cc(C(=O)NC4(c5ccccn5)CC4)c(OCCCN(C)C)cc3C)cc12`: 1 to 250 nM. As to `CNC(=O)c1c(-c2ccc(F)cc2)oc2ccc(-c3cc(C(=O)NC4(c5ccccn5)CC4)c(OC4CCC4)cc3C)cc12`, the EC50 fell in the range of 1 to 250 nM. With `CNC(=O)c1c(-c2ccc(F)cc2)oc2ccc(-c3cc(C(=O)NC4(c5ccccn5)CC4)c(OC4CCCCC4)cc3C)cc12`, the EC50 lay in the range of 1 to 250 nM. `CNC(=O)c1c(-c2ccc(F)cc2)oc2ccc(-c3cc(C(=O)NC4(c5ccccn5)CC4)c(OCCCOC)cc3C)cc12`: the EC50 was in the range of 1 to 250 nM. Regarding `CNC(=O)c1c(-c2ccc(F)cc2)oc2ccc(-c3cc(C(=O)NC4(c5ccccn5)CC4)c(OCCC4CC4)cc3C)cc12`, the EC50 lay within 1 to 250 nM. The same measure for `CNC(=O)c1c(-c2ccc(F)cc2)oc2ccc(-c3cc(C(=O)NC4(c5ccccn5)CC4)c(OCc4ccccc4)cc3C)cc12`: 1 to 250 nM; for `CNC(=O)c1c(-c2ccc(F)cc2)oc2ccc(-c3cc(C(=O)NC4(c5ccccn5)CC4)c(OCc4ccccc4Cl)cc3C)cc12`: 1 to 250 nM; for `CNC(=O)c1c(-c2ccc(F)cc2)oc2ccc(-c3cc(C(=O)NC4(c5ccccn5)CC4)c(OCc4cccc(Cl)c4)cc3C)cc12`: 1 to 250 nM. For the compound `CNC(=O)c1c(-c2ccc(F)cc2)oc2ccc(-c3cc(C(=O)NC4(c5ccccn5)CC4)c(OCc4ccc(Cl)cc4)cc3C)cc12`, the concentration giving a half-maximal response (EC50) was in the range of 1 to 250 nM.

As for `CNC(=O)c1c(-c2ccc(F)cc2)oc2ccc(-c3cc(C(=O)NC4(c5ccccn5)CC4)c(OCCc4ccccc4)cc3C)cc12`, the EC50 lay in the range of 1 to 250 nM. Regarding `CNC(=O)c1c(-c2ccc(F)cc2)oc2ccc(-c3cc(C(=O)NC4(c5ccccn5)CC4)c(OCCc4ccc(OC)cc4)cc3C)cc12`, the EC50 fell in the range of 1 to 250 nM.

For `CNC(=O)c1c(-c2ccc(F)cc2)oc2ccc(-c3cc(C(=O)NC4(c5ccccn5)CC4)c(OCCc4ccc(N(C)C)cc4)cc3C)cc12`, the EC50 fell in the range of 1 to 250 nM. As for `CNC(=O)c1c(-c2ccc(F)cc2)oc2ccc(-c3cc(C(=O)NC4(c5ccccn5)CC4)c(OC4CCOCC4)cc3C)cc12`, the concentration giving a half-maximal response (EC50) lay in the range of 1 to 250 nM. For the compound `CNC(=O)c1c(-c2ccc(F)cc2)oc2ccc(-c3cc(C(=O)NC4(c5ccccn5)CC4)c(OCc4ccccn4)cc3C)cc12`, the EC50 lay in the range of 1 to 250 nM.

Take `CNC(=O)c1c(-c2ccc(F)cc2)oc2ccc(-c3cc(C(=O)NC4(c5ccccn5)CC4)c(OCc4cccnc4)cc3C)cc12`: the half-maximal effective concentration (EC50) was in the range of 1 to 250 nM.

On to `CNC(=O)c1c(-c2ccc(F)cc2)oc2ccc(-c3cc(C(=O)NC4(c5ccccn5)CC4)c(OCCN4CCOCC4)cc3C)cc12`, for which the EC50 lay within 1 to 250 nM. On to `CNC(=O)c1c(-c2ccc(F)cc2)oc2ccc(-c3cc(C(=O)NC4(c5ccccn5)CC4)c(OCC4CCOCC4)cc3C)cc12`, for which the EC50 is 1 to 250 nM. Regarding `CNC(=O)c1c(-c2ccc(F)cc2)oc2ccc(-c3cc(C(=O)NC4(c5ocnc5C)CC4)ccc3C)cc12`, the EC50 was 1 to 250 nM. Consider `CNC(=O)c1c(-c2ccc(F)cc2)oc2ccc(-c3cc(C(=O)NC4(c5nc(C)cc(C)n5)CC4)c(OC)cc3C)cc12`, for which the concentration for a half-maximal effect (EC50) lay within 1 to 250 nM. Turning to `CNC(=O)c1c(-c2ccc(F)cc2)oc2ccc(-c3cc(C(=O)NC4(c5cnccn5)CC4)ccc3C)cc12`, the EC50 is 1 to 250 nM.

Take `CNC(=O)c1c(-c2ccc(F)cc2)oc2ccc(-c3cc(C(=O)NC4(c5nc(C)cc(C)n5)CC4)ccc3C)cc12`: the EC50 lay in the range of 1 to 250 nM. Take `CNC(=O)c1c(-c2ccc(F)cc2)oc2ccc(-c3cc(C(=O)NC4(c5nccc(C)n5)CC4)ccc3C)cc12`: the EC50 is 1 to 250 nM. Regarding `CNC(=O)c1c(-c2ccc(F)cc2)oc2ccc(-c3cc(C(=O)NC4(c5ncc(C)cn5)CC4)ccc3C)cc12`, the EC50 was 1 to 250 nM.

Turning to `CNC(=O)c1c(-c2ccc(F)cc2)oc2ccc(-c3cc(C(=O)NC4(c5ncc(F)cn5)CC4)ccc3C)cc12`, the EC50 lay in the range of 1 to 250 nM. As to `CNC(=O)c1c(-c2ccc(F)cc2)oc2ccc(-c3cc(C(=O)NC4(c5ccncn5)CC4)c(OC)cc3C)cc12`, the EC50 is 1 to 250 nM.

For `CNC(=O)c1c(-c2ccc(F)cc2)oc2ccc(-c3cc(C(=O)NC4(c5nccc(C)n5)CC4)c(OC)cc3C)cc12`, the EC50 was in the range of 1 to 250 nM. For the compound `CNC(=O)c1c(-c2ccc(F)cc2)oc2ccc(-c3cc(C(=O)NC4(c5ncc(F)cn5)CC4)c(OC)cc3C)cc12`, the EC50 was in the range of 1 to 250 nM. `CNC(=O)c1c(-c2ccc(F)cc2)oc2ccc(-c3cc(C(=O)NC4(c5ccnnc5)CC4)ccc3C)cc12`: the EC50 is 1 to 250 nM.

On to `CNC(=O)c1c(-c2ccc(F)cc2)oc2ccc(-c3cc(C(=O)NC4(c5ncc(C)cn5)CC4)c(OC)cc3C)cc12`, for which the 50% effective concentration (EC50) was 1 to 250 nM.

With `CNC(=O)c1c(-c2ccc(F)cc2)oc2ccc(-c3cc(C(=O)NC4(c5nccc(C)n5)CC4)c(OC)cc3C)c(F)c12`, the EC50 lay in the range of 1 to 250 nM. With `CNC(=O)c1c(-c2ccc(F)cc2)oc2ccc(-c3cc(C(=O)NC4(c5ncc(C)cn5)CC4)c(OC)cc3C)c(F)c12`, the EC50 was in the range of 1 to 250 nM.

Consider `CNC(=O)c1c(-c2ccc(F)cc2)oc2ccc(-c3cc(C(=O)NC4(c5cnccn5)CC4)c(OC)cc3C)c(F)c12`, for which the EC50 was 1 to 250 nM.

Regarding `CNC(=O)c1c(-c2ccc(F)cc2)oc2ccc(-c3cc(C(=O)NC4(c5ccnnc5)CC4)c(OC)cc3C)cc12`, the EC50 lay in the range of 1 to 250 nM. For `CNC(=O)c1c(-c2ccc(F)cc2)oc2ccc(-c3cc(C(=O)NC4(c5ccncn5)CC4)c(OC)cc3C)c(F)c12`, the EC50 was in the range of 1 to 250 nM. On to `CNC(=O)c1c(-c2ccc(F)cc2)oc2ccc(-c3cc(C(=O)NC4(c5nc(C)cc(C)n5)CC4)c(OC)cc3C)c(F)c12`, for which the EC50 was 1 to 250 nM. For the compound `CNC(=O)c1c(-c2ccc(F)cc2)oc2ccc(-c3cc(C(=O)NC(C)(C)C)c(OC)cc3OCC(N)=O)cc12`, the EC50 lay in the range of 1 to 250 nM. With `CNC(=O)c1c(-c2ccc(F)cc2)oc2ccc(-c3cc(C(=O)NC4(c5cccnn5)CC4)c(OC)cc3C)cc12`, the concentration giving a half-maximal response (EC50) lay within 1 to 250 nM. Take `CNC(=O)c1c(-c2ccc(F)cc2)oc2ccc(-c3cc(C(=O)NC4(c5cnccn5)CC4)ccc3C)c(F)c12`: the EC50 fell in the range of 1 to 250 nM.

On to `CNC(=O)c1c(-c2ccc(F)cc2)oc2ccc(-c3cc(C(=O)NC4(c5ccncn5)CC4)ccc3C)c(F)c12`, for which the EC50 is 1 to 250 nM.

On to `CNC(=O)c1c(-c2ccc(F)cc2)oc2ccc(-c3cc(C(=O)NC4(c5cccnn5)CC4)ccc3C)c(F)c12`, for which the EC50 was in the range of 1 to 250 nM. For the compound `CNC(=O)c1c(-c2ccc(F)cc2)oc2ccc(-c3cc(C(=O)NC4(c5cccnn5)CC4)c(OC)cc3C)c(F)c12`, the EC50 is 1 to 250 nM. Consider `CNC(=O)c1c(-c2ccc(F)cc2)oc2ccc(-c3cc(C(=O)NC4(c5ccnnc5)CC4)ccc3C)c(F)c12`, for which the EC50 fell in the range of 1 to 250 nM.

Regarding `CNC(=O)c1c(-c2ccc(F)cc2)oc2ccc(-c3cc(C(=O)NC4(c5nc(C)cc(C)n5)CC4)ccc3C)c(F)c12`, the EC50 was 1 to 250 nM. As for `CNC(=O)c1c(-c2ccc(F)cc2)oc2ccc(-c3cc(C(=O)NC4(c5ncc(C)cn5)CC4)ccc3C)c(F)c12`, the half-maximal effective concentration (EC50) is 1 to 250 nM. Take `CNC(=O)c1c(-c2ccc(F)cc2)oc2ccc(-c3cc(C(=O)NC4(c5cccnn5)CC4)ccc3C)cc12`: the EC50 is 1 to 250 nM. Take `CNC(=O)c1c(-c2ccc(F)cc2)oc2ccc(-c3cc(C(=O)NC4(c5cnn(C)c5)CC4)ccc3C)cc12`: the EC50 was in the range of 1 to 250 nM. As for `CNC(=O)c1c(-c2ccc(F)cc2)oc2ccc(-c3cc(C(=O)NC4(c5nccc(C)n5)CC4)ccc3C)c(F)c12`, the EC50 is 1 to 250 nM. On to `CNC(=O)c1c(-c2ccc(F)cc2)oc2ccc(-c3cc(C(=O)NC4(c5ncc(F)cn5)CC4)ccc3C)c(F)c12`, for which the EC50 lay in the range of 1 to 250 nM.
